Results reported in patent publication US11807627B2, “Morphic forms of complement factor D inhibitors” (priority 2018, dated 2023).
Read-outs that look alike come from different tables or passages of the source.

Columns and labels:
Type in all cases: physicochemical
Thermal stability by TGA = settings: for Thermal events from SSCI report: mass/weight loss: up to 250° C.
Procedure: TG analyses were performed using a TA Instruments Q5000 IR thermogravimetric analyzer. Temperature calibration was performed using nickel and Alumel™. Each sample was placed in an aluminum pan. The sample was hermetically sealed, the lid pierced, then inserted into the TG furnace. The furnace was heated under nitrogen. The method code on the thermogram is an abbreviation for the start and end temperature as well as the heating rate; e.g., […] means “from 25° C. to 350° C., at 10° C./min”.

[1] = Hygroscopicity / dynamic vapour sorption (DVS); settings: for DVS: hygroscopicity: Table 27A
Procedure: (§1) Approximately, 10-20 mg of sample were placed into a mesh vapour sorption balance pan and loaded into a DVS Intrinsic dynamic vapour sorption balance by Surface Measurement Systems. The sample was subjected to a ramping profile from 40-90% relative humidity (RH) at 10% increments, maintaining the sample at each step until a stable weight had been achieved (dm/dt 0.004%, minimum step length 30 minutes, maximum step length 500 minutes) at 25° C. After completion of the sorption cycle, the sample was dried using the same procedure to 0% RH and then a second sorption cycle back to 40% RH. Two cycles were performed. The weight change during the sorption/desorption cycles were plotted, allowing for the hygroscopic nature of the sample to be determined. XRPD analysis was then carried out on any solid retained.
as §1, with “Approximately, 10” for “Approximately, 10-20”, “sample was” for “sample were”, “a DVS-1” for “a DVS Intrinsic”

[2] = Storage stability of Compound 3 forms (80° C., 40° C./75% RH, 25° C./60% RH, ambient); settings: for 1 week stability: 40° C./75% RH XRPD (uncapped): WC = weakly crystalline
Procedure: No changes by XRPD or HPLC purity were observed when the material was stored at 40° C./75% RH, 80° C. or under ambient conditions.

[3] = Solubility in selected media (FaSSIF, FeSSIF, FaSSGF, pH 4 citrate, pH 6.8 phosphate)
Procedure: Solubility within selected media (FaSSIF, FeSSIF, FaSSGF, pH 4 citrate and pH 6.8 phosphate) was measured to be <0.01 mg/mL.
The pH 4 citrate buffer was prepared by dissolving sodium citrate (987 mg) and citric acid (1.28 g) in 100 mL H2O. The pH was adjusted to 4. The pH 6.8 phosphate buffer was prepared by dissolving dibasic sodium phosphate dihydrate (873 mg) and monobasic sodium phosphate monohydrate (708 mg) in 100 mL H2O. The pH was adjusted to 6.8. The FaSSIF media was prepared with sodium hydroxide (108 mg), sodium chloride (1.55 g) and monobasic sodium phosphate dihydrate (1.12 g) in H2O (0.25 L) and the pH adjusted to 6.5. FaSSIF/FeSSIF/FaSSGF (0.56 g) was dissolved in the buffer and mixed until opalescent. The FeSSIF media was prepared by dissolving sodium hydroxide (1.01 g), sodium chloride (2.96 g) and glacial acetic acid (2.97 g) in H2O (0.25 L) and the pH adjusted to pH 5. FaSSIF/FeSSIF/FaSSGF (2.81 g) was dissolved in the buffer and thoroughly mixed. The FaSSGF media was prepared by dissolving FaSSIF/FeSSIF/FaSSGF (0.06 g) in a solution of sodium chloride (2.00 g) dissolved in H2O (1 L) and mixing thoroughly.

[4] = Thermogravimetric/differential thermal analysis (TG/DTA)
Procedure: Approximately, 5 mg of material was weighed into an open aluminium pan and loaded into a simultaneous thermogravimetric/differential thermal analyzer (TG/DTA) and held at room temperature. The sample was then heated at a rate of 10° C./min from 20° C. to 400° C. during which time the change in sample weight occurred was recorded along with any differential thermal events (DTA). Nitrogen was used as the purge gas at a flow rate of 300 cm^3/min.

[5] = Differential scanning calorimetry (DSC); settings: for DSC: Melting: onset; for DSC: Melting / DSC: Melting (peak): Table 27A
Procedure: DSC was performed using a TA Instruments 2920 or Q2000 differential scanning calorimeter. Temperature calibration was performed using NIST-traceable indium metal. The sample was placed into an aluminum DSC pan, covered with a lid, and the weight was accurately recorded. A weighed aluminum pan configured as the sample pan was placed on the reference side of the cell. The method code on the thermogram is an abbreviation for the start and end temperature as well as the heating rate; e.g., -30-250-10 means “from −30° C. to 250° C., at 10° C./min”. The following table summarizes the abbreviations used in each image for pan configurations: […]

## CC(=O)c1nn(CC(=O)N2[C@H](C(=O)Nc3nc(Br)ccc3C)C[C@@]3(C)C[C@@H]23)c2ccc(-c3cnc(C)nc3)cc12 [Compound 3, (1R,3S,5R)-2-(2-(3-acetyl-5-(2-methylpyrimidin-5-yl)-1H-indazol-1-yl)acetyl)-N-(6-bromo-3-methylpyridin-2-yl)-5-methyl-2-azabicyclo[3.1.0]hexane-3-carboxamide]
Thermal stability by TGA; to 250° C.
  Thermal Stability by TGA: ~0.8% wt loss to 250 °C
[1]
  Hygroscopicity: Non-hygroscopic
[1]; at 60% RH
  Hygroscopicity: moisture uptake: < 5%

## CC(=O)c1nn(CC(=O)N2[C@H](C(=O)Nc3nc(Br)ccc3C)C[C@@]3(C)C[C@@H]23)c2ccc(-c3cnc(C)nc3)cc12 [Form B]
Thermal stability by TGA
  Thermal events from SSCI report: mass/weight loss: 1.3%
[1]; 25° C.
  DVS analysis: hygroscopic nature: slightly hygroscopic
[1]
  DVS: hygroscopicity: Slightly hygroscopic
[1]; at / up to 90% RH
  DVS uptake as equivalents of water: 0.1 equiv. water
[1]; up to 90% RH
  DVS uptake: 0.26 wt %
[2]; 1 week
  1 week stability: 40° C./75% RH HPLC (uncapped): 99.8% (by % (by relative area)
  1 week stability: 80° C. HPLC (capped): 99.9% (by % (by relative area)
  1 week stability: 80° C. XRPD (capped): Form B
  1 week stability: Ambient conditions HPLC (capped): 99.8% (by % (by relative area)
  1 week stability: Ambient conditions XRPD (capped): Form B
  1 week stability: 40° C./75% RH XRPD (uncapped): Form B
[2]; stored at 40° C./75% RH, 80° C. or under ambient conditions
  Stability: changes by XRPD or HPLC purity: No changes
[3]; FaSSGF
  solubility: <10 µg/mL
[3]; FaSSIF
  solubility: <10 µg/mL
[3]; FeSSIF
  solubility: <10 µg/mL
[3]; pH 4, pH 6.8, FaSSIF, FeSSIF and FaSSGF media
  Solubility in selected media: poorly soluble
[4]; Table 22B
  Onset Temp: Melting: Melting 179.8 °C
[4]; Table 27A
  TG/DTA: Melting: Melting 178.4 °C
[5]; SSCI report, event not named
  Thermal events from SSCI report: thermal event temperature: ~176 °C
[5]
  DSC: Melting: Melting 178.4 °C
  DSC: Melting (peak): (peak 186.3° C.)

## CC(=O)c1nn(CC(=O)N2[C@H](C(=O)Nc3nc(Br)ccc3C)C[C@@]3(C)C[C@@H]23)c2ccc(-c3cnc(C)nc3)cc12 [Compound 3 Form A]
Thermal stability by TGA
  Thermal events from SSCI report: mass/weight loss: 0.8% mass loss
[1]; 25° C.
  DVS analysis: hygroscopic nature: hygroscopic
[1]
  DVS: hygroscopicity: Hygroscopic
[1]; at 90% RH, 25° C.
  DVS total uptake: 6.9%
[1]; at / up to 90% RH
  DVS uptake as equivalents of water: 2.5 equiv. water
[1]; between 50-60% RH
  DVS sharp uptake: 3.0%
  DVS uptake as equivalents of water: 1.0 equiv. water
[2]; 1 week
  1 week stability: 40° C./75% RH HPLC (uncapped): 99.7% (by % (by relative area)
  1 week stability: 80° C. HPLC (capped): 99.7% (by % (by relative area)
  1 week stability: 80° C. XRPD (capped): Form A
  1 week stability: 40° C./75% RH XRPD (uncapped): WC Form A
[2]; 25° C./60% RH, capped vial
  Stability: form by XRPD after storage: Form A
[2]; 40° C./75% RH (uncapped)
  Stability: form by XRPD after storage: predominantly Form A
  Stability: purity change after storage: no purity change
[2]; 40° C./75% RH, capped and uncapped vials
  Stability: form by XRPD after storage (repeat study): weakly crystalline (WC) Form A
[2]; 80° C.
  Stability: purity by HPLC (relative area): no reduction in purity
[3]; FaSSGF
  XRPD Results after stirring in media: Form A
  solubility: <10 µg/mL
[3]; FaSSGF, fassgf or other biorelevant, thermodynamic from solid, read-out: Solubility: HPLC Result
  solubility: < 10 µg/mL
[3]; FaSSIF
  XRPD Results after stirring in media: Form A
  solubility: <10 µg/mL
[3]; FaSSIF, pH 6.5, fassif, thermodynamic from solid, read-out: Solubility: HPLC Result
  solubility: < 10 µg/mL
[3]; FeSSIF
  XRPD Results after stirring in media: Form A
  solubility: <10 µg/mL
[3]; FeSSIF, pH 5, fessif, thermodynamic from solid, read-out: Solubility: HPLC Result
  solubility: < 10 µg/mL
[3]; aqueous buffer, thermodynamic from solid, FaSSIF, FeSSIF, FaSSGF, pH 4 citrate and pH 6.8 phosphate, read-out: Solubility within selected media
  solubility: < 10 µg/mL
[3]; aqueous buffer, thermodynamic from solid, pH 6.8 phosphate buffer, read-out: Solubility: HPLC Result
  solubility: < 10 µg/mL
[3]; pH 4
  solubility: Not detected
[3]; pH 4 citrate buffer
  Solubility: HPLC Result: Not detected
  XRPD Results after stirring in media: Form A
[3]; pH 6.8 phosphate buffer
  XRPD Results after stirring in media: Form A
[3]; pH 6.8 phosphate buffer, pH 6.8, aqueous buffer, thermodynamic from solid, read-out: Solubility
  solubility: < 10 µg/mL
[4]; Table 22B
  Onset Temp: Melting: 139.4, melting ° C.
  Onset Temp: decomposition: 209.0 °C
  Onset Temp: melting (second event): 153.9, ° C.
[4]; Table 27A
  TG/DTA: Melting: Melting 139.4 °C
  TG/DTA: decomposition: decomposition 209 °C
  TG/DTA: melting (second event): melting 153.9° C.,
[4]; up to 250° C.
  Mass loss within the TG trace: 0.8%
[5]; SSCI report
  Thermal events from SSCI report: Melt: Melt 133-150 °C
[5]
  DSC: Melting: Melting 138 °C (peak
  DSC: Melting (peak): 151.4° C.)
